Assay results reported in article PMC6151961 (Journal of Enzyme Inhibition and Medicinal Chemistry, 2018).
Read-outs that look alike come from different tables or passages of the source.

Target: CA IX (Homo sapiens, UniProt Q16790)
Test: biochemical
[1] = experimental value from the library Ki (IDs A…, B…), values equal log10 of Ki in nM
[2] = library compounds with IDs A… and B…, from observed Ki (nM)
[3] = experimental value used for the QSPR model, library compounds (IDs A…, B…), equals log10 of Ki in nM

COc1ccc(C2=Nn3c(nnc3-c3ccc(S(N)(=O)=O)cc3)SC2)cc1 [A0402]
log10 of Ki in nM [1]: 0.813

Cc1c(C(=O)N2CCN(C)CC2)cc(-c2ccc3ccccc3c2)n1-c1ccc(S(N)(=O)=O)cc1 [A1687]
log10 of Ki in nM [2]: 2.124

NS(=O)(=O)c1ccc(NC(=O)N2CCN(CCO)CC2)cc1 [A1995]
log10 of Ki in nM [1]: 2.639

NS(=O)(=O)c1cc(-c2cnc(C3CC3)o2)cs1 [B0238]
log10 of Ki in nM [3]: 1.114

Cc1ccc2c(c1)/C(=N\c1ccc(C(=O)Nc3ccc(S(N)(=O)=O)cc3)cc1)C(=O)N2 [B0670]
log10 of Ki in nM [3]: 2.303

CCCN(CCC)S(=O)(=O)c1ccc(C(=O)N[C@@H](CS)C(=O)O)cc1 [A1793]
log10 of Ki in nM [1]: 2.305

CC(=O)OC[C@H]1O[C@@H]([S+]([O-])Cc2cn(-c3ccc(S(N)(=O)=O)cc3)nn2)[C@H](OC(C)=O)[C@@H](OC(C)=O)[C@H]1OC(C)=O (some centres unmarked) [B0152]
log10 of Ki in nM: 0.886

C#CCOc1ccc(S(N)(=O)=O)cc1 [A0523]
log10 of Ki in nM [3]: 0.914

CCCN(CCC)S(=O)(=O)c1ccc(C(=O)NCC)cc1 [A1724]
log10 of Ki in nM [2]: 2.179

CC(C)CCC[C@@H](C)[C@H]1CC[C@@H]2[C@@H]1CC[C@H]1[C@H]2CC=C2C[C@@H](OS(N)(=O)=O)CC[C@@]21C [A2177]
Ki (library compounds with IDs A… and B…, from observed Ki (nM), read-out: pKi (exp.) (converted)): 1000 nM

CC(C)(C)OC(=O)N(CCCCN(CCCNC(=O)C(F)(F)F)C(=O)OC(C)(C)C)CCCNC(=O)C(F)(F)F [A2554]
log10 of Ki in nM [2]: 5.093

NS(=O)(=O)c1ccc(-c2cccc(C=O)c2)cc1 [A1584]
log10 of Ki in nM: 1.993

NS(=O)(=O)c1ccc(NC(=O)Cn2ccc(=O)c(S(N)(=O)=O)c2)cc1 [B0371]
log10 of Ki in nM: 1.491

CC1(C)CC(=O)C2=C(C1)N(c1ccc(S(N)(=O)=O)cc1)C1=C(C(=O)CC(C)(C)C1)C2c1cccc([N+](=O)[O-])c1 [A1986]
log10 of Ki in nM [2]: 2.623

NS(=O)(=O)c1ccc2nc(-n3cc(/C=N/O)c(-c4ccc([N+](=O)[O-])cc4)n3)sc2c1 [A1655]
log10 of Ki in nM [2]: 2.076

Nc1c(Br)cc(S(N)(=O)=O)cc1I [A1512]
log10 of Ki in nM [3]: 1.934

CCCC(=O)OC[C@H]1O[C@@H](n2cc(-c3ccc(S(N)(=O)=O)cc3)nn2)[C@H](OC(=O)CCC)[C@@H](OC(=O)CCC)[C@H]1OC(=O)CCC [A1285]
log10 of Ki in nM [3]: 1.714

CC(=O)OC[C@H]1O[C@@H](n2cc(-c3ccc(S(N)(=O)=O)cc3)nn2)[C@H](OC(C)=O)[C@@H](OC(C)=O)[C@@H]1OC(C)=O [A1660]
log10 of Ki in nM: 2.079

NS(=O)(=O)c1ccc2nc(-n3cc(C=O)c(-c4ccc(F)cc4)n3)sc2c1 [A2181]
log10 of Ki in nM [3]: 3.009

NS(=O)(=O)c1ccc(-c2cn([C@@H]3O[C@H](CO)[C@@H](O)[C@H](O)[C@H]3O)nn2)cc1 [A1466]
log10 of Ki in nM: 1.897

Cc1cc(C)c(S(=O)(=O)Nc2cccc(C3C4=C(CC(C)(C)CC4=O)N(c4ccc(S(N)(=O)=O)cc4)C4=C3C(=O)CC(C)(C)C4)c2)c(C)c1 [A1535]
log10 of Ki in nM [2]: 1.954

CCOC(=O)c1ccc(NC(=O)NNC(=O)c2ccc(S(N)(=O)=O)cc2)cc1 [A0551]
log10 of Ki in nM [2]: 0.929

NS(=O)(=O)c1ccc(OCCN2CCOCC2)cc1 [A0728]
log10 of Ki in nM [3]: 1.100

CC(=O)OC[C@H]1O[C@@H]([S+]([O-])Cc2cn(-c3ccc(S(N)(=O)=O)cc3)nn2)[C@H](OC(C)=O)[C@@H](OC(C)=O)[C@@H]1OC(C)=O (some centres unmarked) [B0212]
log10 of Ki in nM: 0.996

CCCN(CCC)S(=O)(=O)c1ccc(C(=O)N[C@@H](Cc2c[nH]c3ccccc23)C(N)=O)cc1 [A0923]
log10 of Ki in nM [1]: 1.362

NS(=O)(=O)c1ccc(-c2cnc(C3CCC3)o2)s1 [B0649]
log10 of Ki in nM [1]: 2.193

Oc1ccccc1/C=N/CCCC/N=C/c1ccccc1O [A2462]
log10 of Ki in nM [3]: 4.021

Cc1cc(=O)oc2cc(-n3cc(CSc4ccccc4)nn3)ccc12 [A1053]
log10 of Ki in nM [2]: 1.471

Nc1cc(Nc2ccc(S(N)(=O)=O)cc2)nc(N)n1 [A0250]
log10 of Ki in nM [2]: 0.591

O=S1(=O)C=Cc2cc(-n3cc(C4CC4)nn3)ccc2O1 [A1333]
log10 of Ki in nM [3]: 1.782

COc1ccc(-c2cnc(C3CCC3)o2)cc1S(N)(=O)=O [B0034]
log10 of Ki in nM [1]: 0.491

O=S1(=O)C=Cc2cc(-n3cc(-c4cccc(F)c4)nn3)ccc2O1 [A0598]
log10 of Ki in nM [2]: 0.954
